Experimental data: patent publication US20260174875A1 (Novo Nordisk A/S, priority 2023, published 2026)
Read-outs that look alike come from different tables or passages of the source. Square brackets hold non-standard residues; d marks the D form. Aib = CC(C)(N)C(=O)O

Tests used:
[1] = Pharmacokinetic study in minipigs (i.v.); type: in vivo, Göttingen minipigs; conditions: i.v. administration to minipigs, 2 nmol/kg
Procedure: This is done in a pharmacokinetic (PK) study, where the terminal half-life (t1/2) of the compound or derivative in question is determined. By terminal half-life is meant the time it takes to halve a certain plasma concentration in the terminal elimination phase.
Female Göttingen minipigs, obtained from Ellegaard Göttingen Minipigs (Dalmose, Denmark), approximately 8-12 months of age and weighing approximately 20-30 kg were used in the studies.
After three weeks of acclimatisation two permanent central venous catheters were implanted in vena cava caudalis in each animal. The animals were allowed at least 10 days recovery after the surgery and were then used for repeated pharmacokinetic studies with a suitable wash-out period between successive dosing.
The compounds of the invention were formulated (40 nmol/ml) in the following vehicle: 8 mM phosphate; 250 mM glycerol; 0.007% polysorbate 20, pH 7.4.
Blood samples (for example 1.3 ml) were collected in EDTA (1.3 ml tube containing K3EDTA to yield 1.6 mg K3EDTA/ml blood) coated tubes and then centrifuged at 4° C. and 2000×g for 10 minutes.
Plasma was within 30 min after centrifugation pipetted into Micronic tubes stored on dry ice and were afterwards kept at −20° C. until analysed for plasma concentration of the compounds using LCMS.
Plasma concentrations of the peptides of the invention were assayed by plasma protein precipitation and analysed by liquid chromatography mass spectrometry (LC-MS). Calibrators were prepared by spiking blank plasma from minipigs with the compounds in the typical range from 0.05 to 200 nM. […] The supernatant was diluted with 1 volumes of Milli-Q water containing 1% Formic acid before injection on the LC-MS system. Individual plasma concentration-time profiles were analysed by a non-compartmental pharmacokinetic method (NCA) in Phoenix v. 6.4 (Pharsight Inc., Mountain View, CA, USA), and the resulting terminal half-lives (harmonic mean) determined. The LC-MS analysis was carried out using a TurboFlow HPLC system from Thermo Fisher Scientific (Bremen, Germany) coupled to either a Q Exactive Orbitrap or Altis Triple Quadrupole (TQ) Mass Spectrometer. […] The Orbitrap mass spectrometer were operating in positive ionization mode with a spray voltage of 4.0 kV using Parallel Reaction Monitoring scan mode using 5 m/z isolation windows on the most abundant charge state of the compounds with a resolution of 35K on the Orbitrap MS.
The data was processed using the Quan Browser in the Xcalibur software from Thermo Fisher Scientific (Bremen, Germany) by fitted the data to linear calibration curves (weighed 1/x^2), used for calculating the concentration in the plasma samples. Quality control samples were included.

[2] = Chemical stability assessment in formulation (UPLC-UV-MS purity loss at 37° C.); type: physicochemical; conditions: 8 mM phosphate buffer pH 7.4, 1 mg/mL, 2 weeks
How it was run: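 Degradation tracked by UPLC-UV-MS (formic acid/acetonitrile gradient) on samples drawn over 2 weeks at 37° C. Solutions were made at a 1 mg/mL target in 8 mM phosphate, pH 7.4, kept in sealed vials and frozen after sampling.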

[3] = target: T1, human GIP receptor (hGIPR) (Homo sapiens, UniProt P48546); assay: GIP receptor assay, method B (CRE-luciferase reporter, BHK cells, 384-well); type: cell-based
T1 construct: expressed in transfected cells
T1 sequence (P48546 22-466): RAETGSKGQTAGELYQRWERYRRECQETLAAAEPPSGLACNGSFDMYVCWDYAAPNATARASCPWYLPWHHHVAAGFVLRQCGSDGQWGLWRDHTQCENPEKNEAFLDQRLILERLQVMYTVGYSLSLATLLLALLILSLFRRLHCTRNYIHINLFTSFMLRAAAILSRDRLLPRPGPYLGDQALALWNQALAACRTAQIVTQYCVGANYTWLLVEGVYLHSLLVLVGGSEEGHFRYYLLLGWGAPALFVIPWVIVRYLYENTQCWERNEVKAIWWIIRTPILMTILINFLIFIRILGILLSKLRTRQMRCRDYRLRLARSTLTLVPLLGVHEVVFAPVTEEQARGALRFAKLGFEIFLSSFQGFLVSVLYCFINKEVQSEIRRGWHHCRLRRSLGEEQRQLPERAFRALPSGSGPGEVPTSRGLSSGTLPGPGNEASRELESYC

[4] = target: T2, human amylin receptor (hAMYR3) (Homo sapiens, UniProt O60896+P30988); assay: Amylin receptor assay, method B (CRE-luciferase reporter, BHK cells); type: cell-based
T2 construct: host or cells: BHK cells (Hollex-1 line expressing hCTR(a) and CRE-Luc), further transfected with human RAMP3
How it was run: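 BHK cells with CRE-luciferase, co-expressing hAMYR3 and transfected with human RAMP3, seeded overnight, then exposed 3 h at 37 °C to compound. Buffer: phenol red-free DMEM, 10 mM HEPES, 1% ovalbumin, with 0% or 1% (w/v) HSA. Luminescence read after 30 min with steadylite Plus.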

[5] = target: T3, human GLP-1 receptor (hGLP-1R) (Homo sapiens, UniProt P43220); assay: GLP-1 receptor assay, method B (CRE-luciferase reporter, BHK cells, 384-well); type: cell-based; conditions: hGLP-1R Potency, 1% HSA, EC50, methods B, in the presence of 1% HSA
T3 construct: expressed in transfected cells
T3 sequence (P43220 24-463): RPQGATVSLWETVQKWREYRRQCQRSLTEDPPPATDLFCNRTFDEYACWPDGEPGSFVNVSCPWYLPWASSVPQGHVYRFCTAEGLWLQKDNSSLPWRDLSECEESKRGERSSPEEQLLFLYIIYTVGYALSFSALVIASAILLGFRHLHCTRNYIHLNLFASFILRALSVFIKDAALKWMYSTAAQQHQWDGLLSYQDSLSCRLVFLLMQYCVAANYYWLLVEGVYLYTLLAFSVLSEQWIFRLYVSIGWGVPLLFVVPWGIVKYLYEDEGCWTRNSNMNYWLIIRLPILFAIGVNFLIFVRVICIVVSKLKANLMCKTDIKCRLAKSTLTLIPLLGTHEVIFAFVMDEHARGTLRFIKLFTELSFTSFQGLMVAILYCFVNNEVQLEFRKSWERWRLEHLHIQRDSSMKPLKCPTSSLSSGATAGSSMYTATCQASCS
Procedure: To assess how the activation of the receptors is potentially influenced by the presence of human serum albumin (HSA), the in vitro assays were performed in the absence of HSA and presence of 1% (w/v) HSA.
Cells at approximately 80-90% confluence were washed once in PBS (Gibco 14190-094) and loosened from the cell flasks with Versene (Gibco, 15040-033). […] Cells were aliquoted and stored at −180° C. until use.
The assay buffer consisted of DMEM without phenol red (Gibco, 11880-028) supplemented with 1× GlutaMAX (Gibco, 35050-038), 10 mM HEPES (Gibco, 15630-056), 1% (w/v) ovalbumin (Sigma, A5503) and 0.1% (v/v) Pluronic F-68 (Gibco, 24040-032) either with HSA or without HSA (Sigma, A9511).
Serial dilutions were transferred to a 384-well assay plate (PerkinElmer/Revvity, 6007688) and mixed with an equal volume (10 μL) of assay buffer without or with 3% (w/v) HSA (Sigma, A-9511). Frozen stocks of hGLP-1R BHK Cre-Luc cells were thawed in a 37° C. water bath, washed once in PBS (Gibco 14190-094), diluted to 1.5×10^5 (1.5E+5) cells/mL in assay buffer (without HSA) and added (10 μL) to each well of the 384-well assay plate. After a short centrifugation, the assay plates were incubated for 3 hours at 37° C. in 5% CO2 and let to equilibrated at room temperature for 10 minutes before the addition of 30 μL steadylite Plus™ PerkinElmer/Revvity, 6066759) per well. Plates were sealed and incubated at room temperature with gentle shaking for 30 minutes while protected from light. Luminescence was detected on a luminescence plate reader e.g. a Synergy 2 (BioTek).

[6] = target: T4, human amylin-3(a) receptor (human, UniProt P30988 25-474; O60896 24-148); assay: cell-based or functional assay
T4 sequence (looked up) 1: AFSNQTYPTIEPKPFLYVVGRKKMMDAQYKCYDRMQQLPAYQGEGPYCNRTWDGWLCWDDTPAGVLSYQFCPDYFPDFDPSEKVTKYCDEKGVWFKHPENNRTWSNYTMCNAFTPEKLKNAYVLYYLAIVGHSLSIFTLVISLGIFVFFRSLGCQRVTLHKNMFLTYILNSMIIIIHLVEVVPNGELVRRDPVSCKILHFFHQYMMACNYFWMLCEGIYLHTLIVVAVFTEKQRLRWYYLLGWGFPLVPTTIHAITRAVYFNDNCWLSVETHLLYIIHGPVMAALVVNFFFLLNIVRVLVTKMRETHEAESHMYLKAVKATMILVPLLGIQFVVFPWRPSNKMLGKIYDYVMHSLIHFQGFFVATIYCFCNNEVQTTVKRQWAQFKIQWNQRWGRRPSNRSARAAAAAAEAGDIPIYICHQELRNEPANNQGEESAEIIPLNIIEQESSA
T4 sequence (looked up) 2: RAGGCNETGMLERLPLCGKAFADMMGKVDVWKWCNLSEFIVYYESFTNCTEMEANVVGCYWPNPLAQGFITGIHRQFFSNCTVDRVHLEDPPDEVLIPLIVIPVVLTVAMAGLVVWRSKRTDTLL

[7] = target: T5, human GIP receptor (human, UniProt P48546 22-466); assay: cell-based or functional assay
T5 sequence (looked up): T1 sequence (P48546 22-466)

[8] = target: human GLP-1 receptor (human, UniProt P43220 24-463); assay: cell-based or functional assay

CC[C@H](C)[C@H](NC(=O)[C@H](CCC(=O)O)NC(=O)[C@H](CCC(=O)O)NC(=O)[C@H](CC(C)C)NC(=O)[C@H](CC(C)C)NC(=O)[C@@H](NC(=O)[C@H](CO)NC(=O)[C@H](Cc1ccc(O)cc1)NC(=O)[C@H](CC(=O)O)NC(=O)[C@H](CO)NC(=O)[C@@H](NC(=O)[C@H](Cc1ccccc1)NC(=O)[C@@H](NC(=O)CNC(=O)[C@H](CCC(=O)O)NC(=O)C(C)(C)NC(=O)[C@@H](N)Cc1ccc(O)cc1)[C@@H](C)O)[C@@H](C)O)[C@@H](C)CC)C(=O)N[C@@H](C)C(=O)N[C@@H](C)C(=O)N[C@@H](CCCNC(=N)N)C(=O)N[C@@H](CCC(=O)O)C(=O)N[C@@H](Cc1ccccc1)C(=O)N[C@H](C(=O)N[C@@H](CCC(=O)O)C(=O)N[C@@H](Cc1c[nH]c2ccccc12)C(=O)N[C@@H](CC(C)C)C(=O)N[C@@H](CC(C)C)C(=O)N[C@@H](C)C(=O)NCC(=O)NCC(=O)N1CCC[C@H]1C(=O)N[C@@H](CO)C(=O)N[C@@H](CO)C(=O)NCC(=O)N[C@@H](C)C(=O)NCC(=O)N[C@@H](CCC(N)=O)C(=O)N[C@@H](C)C(=O)N1CCC[C@H]1C(=O)NCC(=O)N[C@@H](CCC(N)=O)C(=O)N[C@@H](C)C(=O)N1CCC[C@H]1C(=O)N[C@@H](CC(C)C)C(=O)N[C@@H](C)C(=O)N[C@@H](CO)C(=O)N[C@@H](Cc1c[nH]cn1)C(=O)N[C@@H](CC(C)C)C(=O)N[C@@H](CO)C(=O)N[C@H](C(=O)N[C@@H](C)C(=O)N[C@@H](CCC(N)=O)C(=O)N[C@H](C(=O)N[C@@H](CCC(N)=O)C(=O)N[C@@H](CCCNC(=N)N)C(=O)N[C@@H](CC(C)C)C(=O)N[C@@H](CO)C(=O)N[C@@H](C)C(=O)N[C@@H](CCC(=O)O)C(=O)N[C@@H](CC(C)C)C(=O)N[C@@H](Cc1c[nH]cn1)C(=O)N[C@@H](CCCCNC(=O)COCCOCCNC(=O)COCCOCCNC(=O)CC[C@H](NC(=O)CCCCCCCCCCCCCCCCCCC(=O)O)C(=O)O)C(=O)N[C@@H](CC(C)C)C(=O)N[C@@H](C)C(=O)N[C@H](C(=O)N[C@@H](CC(C)C)C(=O)N1CCC[C@H]1C(=O)N[C@@H](CCCNC(=N)N)C(=O)N[C@H](C(=O)N[C@@H](CCC(=O)O)C(=O)N[C@H](C(=O)NCC(=O)N[C@@H](CO)C(=O)NCC(=O)N[C@@H](CO)C(=O)N1CCC[C@H]1C(N)=O)[C@@H](C)O)[C@@H](C)O)[C@@H](C)O)[C@@H](C)O)[C@@H](C)O)[C@@H](C)CC [Compound 125]
Terminal half-life t1/2 [1]: 100 h | Purity loss per week at 37° C. [2]: 0.5%

CC[C@H](C)[C@H](NC(=O)[C@H](CCC(=O)O)NC(=O)[C@H](CCC(=O)O)NC(=O)[C@H](CC(C)C)NC(=O)[C@H](CC(C)C)NC(=O)[C@H](CCCCNC(=O)COCCOCCNC(=O)COCCOCCNC(=O)CC[C@H](NC(=O)CCCCCCCCCCCCCCCCCCC(=O)O)C(=O)O)NC(=O)[C@H](CO)NC(=O)[C@H](Cc1ccc(O)cc1)NC(=O)[C@H](CC(=O)O)NC(=O)[C@H](CO)NC(=O)[C@@H](NC(=O)[C@H](Cc1ccccc1)NC(=O)[C@@H](NC(=O)CNC(=O)[C@H](CCC(=O)O)NC(=O)C(C)(C)NC(=O)[C@@H](N)Cc1ccc(O)cc1)[C@@H](C)O)[C@@H](C)O)C(=O)N[C@@H](C)C(=O)N[C@@H](C)C(=O)N[C@@H](CCCNC(=N)N)C(=O)N[C@@H](CCC(=O)O)C(=O)N[C@@H](Cc1ccccc1)C(=O)N[C@H](C(=O)N[C@@H](CCC(=O)O)C(=O)N[C@@H](Cc1c[nH]c2ccccc12)C(=O)N[C@@H](CC(C)C)C(=O)N[C@@H](CC(C)C)C(=O)N[C@@H](C)C(=O)NCC(=O)NCC(=O)N1CCC[C@H]1C(=O)N[C@@H](CO)C(=O)N[C@@H](CO)C(=O)NCC(=O)N[C@@H](C)C(=O)NCC(=O)N[C@@H](C)C(=O)N[C@@H](CO)C(=O)N[C@@H](CCC(=O)O)C(=O)N[C@@H](CC(C)C)C(=O)N[C@@H](CO)C(=O)N[C@H](C(=O)N[C@@H](C)C(=O)N[C@@H](CCC(N)=O)C(=O)N[C@@H](CC(C)C)C(=O)NCC(=O)N[C@@H](CCCNC(=N)N)C(=O)N[C@@H](CC(C)C)C(=O)N[C@@H](CO)C(=O)N[C@@H](C)C(=O)N[C@@H](CCC(=O)O)C(=O)N[C@@H](CC(C)C)C(=O)N[C@@H](Cc1c[nH]cn1)C(=O)N[C@@H](CCC(N)=O)C(=O)N[C@@H](CC(C)C)C(=O)N[C@@H](C)C(=O)N[C@H](C(=O)N[C@@H](CC(C)C)C(=O)N1CCC[C@H]1C(=O)N[C@@H](CCCNC(=N)N)C(=O)N[C@H](C(=O)N[C@@H](CCC(=O)O)C(=O)N[C@H](C(=O)NCC(=O)N[C@@H](CO)C(=O)NCC(=O)N[C@@H](CO)C(=O)N1CCC[C@H]1C(N)=O)[C@@H](C)O)[C@@H](C)O)[C@@H](C)O)[C@@H](C)O)[C@@H](C)CC [Compound 183]
EC50 ([3]; hGIPR Potency, 1% HSA, EC50, methods B, in the presence of 1% HSA): 71.4 pM | EC50 ([3]; method B, absence of HSA, read-out: hGIPR Potency, no HSA, EC50): 2 pM | EC50 ([4]; hAMYR3 Potency, 1% HSA, EC50, methods B, in the presence of 1% HSA): 108 pM | EC50 ([4]; method B, absence of HSA, read-out: hAMYR3 Potency, no HSA, EC50): 6.2 pM | EC50 [5]: 744 pM | Purity loss per week at 37° C. [2]: 1.3%

B1: Compound 219 (peptide)
peptide: Y[Aib]EGTFTSDYSILLEEIAAREFIEWLLAGGPSSGAGQAPGQAEGASHLSTAQTQRLSAELHKLATLPRTETGSGSP-NH2
modifications: also: further groups not given here
hAMYR3 Potency, no HSA, EC50 [pM] [6]: 5 pM | hGIPR Potency, no HSA, EC50 [pM] [7]: 0.5 pM

B2: Compound 217 (peptide)
peptide: Y[Aib]EGTFTSDYSILLEEIAAREFIEWLLAGGPSSGAGQAPGEAPGASHLSTAQTQRLSAELHKLATLPRTETGSGSP-NH2
modifications: also: further groups not given here
hGLP-1R Potency, no HSA, EC50 [pM] [8]: 9 pM
